Reference: ChEMBL document CHEMBL1159345, “Eudistomins W and X, two new beta-carbolines from the micronesian tunicate Eudistoma sp” (2003)

How the values were obtained:
Type in all cases: functional
Conditions in all cases: read-out: IZ
Bacillus subtilis [1] = assay: Antimicrobial activity against Bacillus subtilis at 5 ug/disk by agar diffusion assay
Bacillus subtilis [2] = assay: Antimicrobial activity against Bacillus subtilis at 10 ug/disk by agar diffusion assay
Staphylococcus aureus [3] = assay: Antimicrobial activity against Staphylococcus aureus at 5 ug/disk by agar diffusion assay
Staphylococcus aureus [4] = assay: Antimicrobial activity against Staphylococcus aureus at 10 ug/disk by agar diffusion assay
Escherichia coli [5] = assay: Antimicrobial activity against Escherichia coli at 5 ug/disk by agar diffusion assay
Escherichia coli [6] = assay: Antimicrobial activity against Escherichia coli at 10 ug/disk by agar diffusion assay
Candida albicans [7] = assay: Antimicrobial activity against Candida albicans at 5 ug/disk by agar diffusion assay
Candida albicans [8] = assay: Antimicrobial activity against Candida albicans at 10 ug/disk by agar diffusion assay

SMILES	zone of inhibition at 5 µg/disc (Bacillus subtilis [1])	zone of inhibition at 10 µg/disc (Bacillus subtilis [2])	zone of inhibition at 5 µg/disc (Staphylococcus aureus [3])	zone of inhibition at 10 µg/disc (Staphylococcus aureus [4])	zone of inhibition at 5 µg/disc (Escherichia coli [5])	zone of inhibition at 10 µg/disc (Escherichia coli [6])	zone of inhibition at 5 µg/disc (Candida albicans [7])	zone of inhibition at 10 µg/disc (Candida albicans [8])
CN(C)C(Cc1ccccc1)c1nccc2c1[nH]c1ccc(O)cc12 (centres undefined) [EUDISTOMIN X]	17 mm	18 mm	11 mm	12 mm	15 mm	20 mm	17 mm	18 mm
Oc1ccc2[nH]c3c([C@@H](O)Cc4ccccc4)nccc3c2c1 [EUDISTOMIN W]	–	–	–	–	–	–	–	13 mm
